The target of the experiment is T1, β-secretase(BACE) (Homo sapiens, UniProt P56817).
T1 construct: purchased Panvera
The experiment in a line: BACE FS1% Inhibition Assay. The class given is biochemical. The note with it: FS1 substrate. As to the method: BACE FS1% Inhibition Assay The following reagents were used in this assay: sodium acetate, PEG8000 (Sigma), DMSO, HEPES, FS1 substrate [[…]] […] The FS1-substrate stock solution was prepared in DMSO as a 10 mg/mL solution. The FS1-substrate working solution was prepared by diluting the 10 mg/mL stock solution with substrate assay buffer to a final concentration of 300 μg/mL. The β-secretase (BACE) working solution was prepared by diluting a 0.83 mg/mL BACE stock solution with enzyme assay buffer to a final concentration of 4 μg/mL. Test compounds were dissolved in DMSO to 10 mM. […] The screening procedure for this assay was as follows: 15 μL of BACE working solution was pipetted into each well of a 96-well plate. To each well was then pipetted 2 μL of test compound at the selected concentration. Test compound and BACE were then mixed with a pipettor and incubated for 20 min at room temperature. To each well was then added 10 μL of the FS1 substrate working solution. The plates were then incubated for 1 hour at room temperature. […] The procedure for the blank was as follows. 15 μL of assay buffer was pipetted into each well to be used as a blank control. To each well was then added 2 μL of vehicle and 10 μL of FS1-substrate working solution. The plates were then incubated for 1 hour at room temperature. […] The procedure for the positive control was as follows: 15 μL of BACE working solution was pipetted into each well to be used as a positive control. To each well was then pipetted 2 μL of vehicle. Vehicle and BACE were then mixed with a pipettor and incubated for 20 min at room temperature. To each well was then added 10 μL of the FS1 substrate working solution. The plates were then incubated for 1 hour at room temperature. […] For test compounds, % inhibition was determined at each concentration as follows: [formula]

T1 sequence (P56817 46-501): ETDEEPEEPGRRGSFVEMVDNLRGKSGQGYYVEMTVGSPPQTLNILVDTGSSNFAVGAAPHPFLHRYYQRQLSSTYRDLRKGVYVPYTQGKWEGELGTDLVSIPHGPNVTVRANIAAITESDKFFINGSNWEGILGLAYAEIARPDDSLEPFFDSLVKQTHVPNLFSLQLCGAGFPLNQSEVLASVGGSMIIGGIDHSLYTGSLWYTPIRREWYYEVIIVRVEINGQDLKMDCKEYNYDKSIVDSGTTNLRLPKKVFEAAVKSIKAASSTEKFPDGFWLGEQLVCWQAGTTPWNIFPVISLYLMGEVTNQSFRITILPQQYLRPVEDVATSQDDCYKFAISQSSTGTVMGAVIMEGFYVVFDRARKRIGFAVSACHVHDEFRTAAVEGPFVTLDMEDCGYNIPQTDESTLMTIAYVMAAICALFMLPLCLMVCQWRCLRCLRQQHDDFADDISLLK

For the compound `COC(=O)C1CCCC(N(C)C(=O)CCC(C2CCCCC2)N2Cc3cc(Oc4ccccc4)ccc3N=C2N)C1` (mixture of isomers) [Compound 777], the “% Inhibition (FS)” value (0.3 μM test compound) was 38%, the “% Inhibition (FS)” value (1 μM test compound) worked out at 97% and the “% Inhibition (FS)” value (3 μM test compound) was 123%.
On to `COc1ccc(-c2ccc3c(c2)CN(C(CCC(=O)N(C)C2CCCCC2)C2CCCCC2)C(N)=N3)cc1` (racemic) [Compound 226], for which the “% Inhibition (FS) 0.3 μM” value (0.3 μM test compound) is less than 30%. For the same compound, for the setting “1 μM test compound”, the “% Inhibition (FS) 1 μM” value is recorded as less than 30%. For the same compound, the “% Inhibition (FS) 3 μM” value (3 μM test compound) is recorded as 54%.
For `CCC(c1cccc(C(=O)N(C)C2CCCCC2)c1)N1Cc2cc(-c3ccccc3OC)ccc2N=C1N` (racemic) [Compound 395], for the setting “0.3 μM test compound”, the “% Inhibition (FS) 0.3 μM” value was 69%. In addition, the “% Inhibition (FS) 1 μM” value (1 μM test compound) stood at 107%. The “% Inhibition (FS) 3 μM” value (3 μM test compound) is on record as 118%.
Take `CCCC(CCCC(=O)NC1CCCCC1)N1Cc2cc(Oc3ccccc3)ccc2N=C1N` (stereo not shown) [Compound 91]: the “% Inhibition (FS) 3 μM” value (3 μM test compound) is recorded as 68%. In addition, the “% Inhibition (FS) 10 μM” value (10 μM test compound) is on record as 117%.
The matching figures for `NC1=Nc2ccc(Oc3ccccc3)cc2CN1CCCCNC(=O)C1CCCCC1` [Compound 115]: 40% and 105%.
With `NC1=Nc2ccc(Oc3ccccc3)cc2CN1CCCCNC(=O)C1CCCC1` [Compound 116], under “3 μM test compound”, the “% Inhibition (FS) 3 μM” value came to 39%. In addition, for the setting “10 μM test compound”, the “% Inhibition (FS) 10 μM” value is 81%.
On to `CN(C(=O)c1ccc2c(c1)C(N1Cc3cc(Oc4ccccc4)ccc3N=C1N)c1ccccc1-2)C1CCCCC1` (stereo not shown) [Compound 118], for which the “% Inhibition (FS) 3 μM” value (3 μM test compound, 3 µM) is 48%. In addition, the “% Inhibition (FS) 10 μM” value (10 μM test compound, 10 µM) was found to be 91%.
Regarding `NC1=Nc2ccc(Oc3ccccc3)cc2CN1C1CCN(C(=O)C2CCCCC2)C1` (stereo not shown) [Compound 119], the “% Inhibition (FS) 3 μM” value (3 μM test compound) stood at 42%. The “% Inhibition (FS) 10 μM” value (10 μM test compound) was 75%.
For `NC1=Nc2ccc(Oc3ccccc3)cc2CN1C1CCN(C(=O)C2CCCC2)C1` (stereo not shown) [Compound 120], in that order: less than 30% and 34%.
The matching figures for `NC1=Nc2ccc(Oc3ccccc3)cc2CN1C1c2ccccc2-c2cccc(C(=O)N(C3CCCCC3)C3CCCCC3)c21` (stereo not shown) [Compound 124]: 56% and 67%.
By inhibition is commonly meant the percentage by which the read-out fell short of the control. On to `CN(C(=O)c1ccc2c(c1)C(N1Cc3cc(Oc4ccccc4)ccc3N=C1N)c1ccccc1-2)C1CCCCC1` (stereo not shown) [Compound 125, 9-(2-Amino-6-phenoxy-4H-quinazolin-3-yl)-9H-fluorene-2-carboxylic acid cyclohexyl-methyl-amide], for which the inhibition at 3 µM (3 μM test compound, read-out: % Inhibition (FS) 3 μM) stood at 42%. The inhibition at 10 µM (10 μM test compound, read-out: % Inhibition (FS) 10 μM) was found to be 80%.
Regarding `CCCC(CCC(=O)NC1CCCCCC1)N1Cc2cc(Oc3ccccc3)ccc2N=C1N` (stereo not shown) [Compound 128], the “% Inhibition (FS) 3 μM” value (3 μM test compound) was found to be 97%. For the setting “10 μM test compound”, the “% Inhibition (FS) 10 μM” value is 108%.
For `NC1=Nc2ccc(Oc3ccccc3)cc2CN1C(c1ccccc1)c1cccc(C(=O)N(C2CCCCC2)C2CCCCC2)c1` (stereo not shown) [Compound 132], in that order: 54% and 118%.
For `NC1=Nc2ccc(Oc3ccccc3)cc2CN1CCNC(=O)C1CC1c1ccccc1` (stereo not shown) [Compound 139], in that order: less than 30% and 61%.
The matching figures for `CCCCCCCCCC(=O)NCCN1Cc2cc(Oc3ccccc3)ccc2N=C1N` [Compound 142]: less than 30% and 38%.
As for `NC1=Nc2ccc(Oc3ccccc3)cc2CN1CCCNC(=O)C1CC1` [Compound 143], the “% Inhibition (FS) 3 μM” value (3 μM test compound) is less than 30%. Besides, where the note is “10 μM test compound”, the “% Inhibition (FS) 10 μM” value is recorded as 32%.
With `NC1=Nc2ccc(Oc3ccccc3)cc2CN1CCCNC(=O)C1CCC1` [Compound 144], the “% Inhibition (FS) 3 μM” value (3 μM test compound) stood at 39%. In addition, the “% Inhibition (FS) 10 μM” value (10 μM test compound) worked out at 59%.
The matching figures for `CN(C(=O)c1ccc2c(c1)C(N1Cc3cc(Oc4ccccc4)ccc3N=C1N)CC2)C1CCCCC1` (stereo not shown) [Compound 145]: less than 30% and 37%.
With `COc1ccc2c(c1)C(CC(=O)N(C)C1CCCCC1)CC2N1Cc2cc(Oc3ccccc3)ccc2N=C1N` (stereo not shown) [Compound 146], the “% Inhibition (FS) 3 μM” value (3 μM test compound) is recorded as less than 30%. The “% Inhibition (FS) 10 μM” value (10 μM test compound) came out at 39%.
The matching figures for `NC1=Nc2ccc(Oc3ccccc3)cc2CN1C1c2ccccc2-c2c(C(=O)N(C3CCCCC3)C3CCCCC3)cccc21` (stereo not shown) [Compound 147]: less than 30% and 71%.
Take `CCCCCC(CCC(=O)NC1CCCCCC1)N1Cc2cc(Oc3ccccc3)ccc2N=C1N` (stereo not shown) [Compound 150]: for the setting “0.3 μM test compound”, the “% Inhibition (FS) 0.3 μM” value is on record as less than 30%. Moreover, the “% Inhibition (FS) 1 μM” value (1 μM test compound) was less than 30%. In addition, the “% Inhibition (FS) 3 μM” value (3 μM test compound) was determined as 90%.
Consider `NC1=Nc2ccc(Oc3ccccc3)cc2CN1CCNC(=O)CCc1ccccc1` [Compound 155], for which the “% Inhibition (FS) 3 μM” value (3 μM test compound) was less than 30%. For the same compound, where the note is “10 μM test compound”, the “% Inhibition (FS) 10 μM” value worked out at 49%.
For `CC(C)(C)c1ccc(C(=O)NCCN2Cc3cc(Oc4ccccc4)ccc3N=C2N)cc1` [Compound 156], in that order: less than 30% and 40%.
The matching figures for `CCCCc1ccc(C(=O)NCCN2Cc3cc(Oc4ccccc4)ccc3N=C2N)cc1` [Compound 157]: less than 30% and 50%.
As for `CN(C(=O)c1cccc(CN2Cc3cc(-c4cn[nH]c4)ccc3N=C2N)c1)C1CCCCC1` [Compound 161], the “% Inhibition (FS) 0.3 μM” value (0.3 μM test compound) was less than 30%. In addition, where the note is “1 μM test compound”, the “% Inhibition (FS) 1 μM” value is less than 30%. Also, for the setting “3 μM test compound”, the “% Inhibition (FS) 3 μM” value is reported as less than 30%.
Consider `CN(C(=O)c1cccc(CN2Cc3cc(-c4ccc(C(N)=O)cc4)ccc3N=C2N)c1)C1CCCCC1` [Compound 162], for which, where the note is “0.3 μM test compound”, the “% Inhibition (FS) 0.3 μM” value is recorded as less than 30%. Besides, the “% Inhibition (FS) 1 μM” value (1 μM test compound) was less than 30%. The “% Inhibition (FS) 3 μM” value (3 μM test compound) is given as less than 30%.
`CN(C(=O)c1cccc(CN2Cc3cc(-c4cccc(C(=O)O)c4)ccc3N=C2N)c1)C1CCCCC1` [Compound 163]: the “% Inhibition (FS) 0.3 μM” value (0.3 μM test compound) is less than 30%. Further, under “1 μM test compound”, the “% Inhibition (FS) 1 μM” value is recorded as 33%. Besides, under “3 μM test compound”, the “% Inhibition (FS) 3 μM” value is listed as less than 30%.
`CC(=O)Nc1cccc(-c2ccc3c(c2)CN(Cc2cccc(C(=O)N(C)C4CCCCC4)c2)C(N)=N3)c1` [Compound 166]: the “% Inhibition (FS) 0.3 μM” value (0.3 μM test compound) is on record as less than 30%. Moreover, for the setting “1 μM test compound”, the “% Inhibition (FS) 1 μM” value is listed as 37%. The “% Inhibition (FS) 3 μM” value (3 μM test compound) is 74%.
For `CN(C(=O)c1cccc(CN2Cc3cc(-c4ccncc4)ccc3N=C2N)c1)C1CCCCC1` [Compound 168], in that order: less than 30%, less than 30% and less than 30%.
For `CN(C(=O)c1cccc(CN2Cc3cc(-c4cccc(-c5ccccc5)c4)ccc3N=C2N)c1)C1CCCCC1` [Compound 171], in that order: less than 30%, 31% and 42%.
The matching figures for `CN(C)Cc1ccccc1-c1ccc2c(c1)CN(Cc1cccc(C(=O)N(C)C3CCCCC3)c1)C(N)=N2` [Compound 172]: less than 30%, less than 30% and less than 30%.
For `CN(C(=O)c1cccc(CN2Cc3cc(-c4ccc5[nH]ccc5c4)ccc3N=C2N)c1)C1CCCCC1` [Compound 175], the “% Inhibition (FS) 0.3 μM” value (0.3 μM test compound) is listed as less than 30%. In addition, where the note is “1 μM test compound”, the “% Inhibition (FS) 1 μM” value is given as less than 30%. The “% Inhibition (FS) 3 μM” value (3 μM test compound) turned out to be 37%.
Turning to `NC1=Nc2ccc(Oc3ccccc3)cc2CN1CCC(=O)N(C1CCCCC1)C1CCCCC1` [Compound 180], the “% Inhibition (FS) 0.3 μM” value (0.3 μM test compound) is given as less than 30%. Also, the “% Inhibition (FS) 1 μM” value (1 μM test compound) is less than 30%. In addition, for the setting “3 μM test compound”, the “% Inhibition (FS) 3 μM” value is given as 77%.
As to `CC(C)N(C(=O)CCN1Cc2cc(Oc3ccccc3)ccc2N=C1N)C(C)C` [Compound 181], the “% Inhibition (FS) 0.3 μM” value (0.3 μM test compound) is listed as less than 30%. The “% Inhibition (FS) 1 μM” value (1 μM test compound) is listed as less than 30%. Besides, the “% Inhibition (FS) 3 μM” value (3 μM test compound) came out at 32%.
Regarding `CCCCCC1CCC(C(=O)NCCN2Cc3cc(Oc4ccccc4)ccc3N=C2N)CC1` (stereo not shown) [Compound 182], for the setting “0.3 μM test compound”, the “% Inhibition (FS) 0.3 μM” value is on record as less than 30%. Further, where the note is “1 μM test compound”, the “% Inhibition (FS) 1 μM” value is less than 30%. Besides, the “% Inhibition (FS) 3 μM” value (3 μM test compound) is listed as 38%.
With `CC(C)(C)C1CCC(C(=O)NCCN2Cc3cc(Oc4ccccc4)ccc3N=C2N)CC1` (stereo not shown) [Compound 184], for the setting “0.3 μM test compound”, the “% Inhibition (FS) 0.3 μM” value is given as less than 30%. The “% Inhibition (FS) 1 μM” value (1 μM test compound) is given as less than 30%. Under “3 μM test compound”, the “% Inhibition (FS) 3 μM” value is listed as 31%.
Turning to `CC1CCC(N(C(=O)c2cccc(CN3Cc4cc(Oc5ccccc5)ccc4N=C3N)c2)C2CCC(C)CC2)CC1` (stereo not shown) [Compound 187], the “% Inhibition (FS) 0.3 μM” value (0.3 μM test compound) is less than 30%. The “% Inhibition (FS) 1 μM” value (1 μM test compound) is less than 30%. Further, the “% Inhibition (FS) 3 μM” value (3 μM test compound) was determined as 39%.

The record behind these values is patent US8383637B2, “2-amino-quinazoline derivatives useful as inhibitors of β-secretase (BACE)” (Jansssen Pharmaceutica N.V., priority 2004, dated 2013).
